According to PubChem BioAssay AID256 (DTP/NCI, 2004):
Inconclusive results and toxic doses are left out. How the source made its calls: active means survival T/C of 150% or more; inactive means T/C below 125% in these data. Residues, ends and D or L forms follow the SMILES beside them. *: point of attachment. Cbz = O=C(OCc1ccccc1)*

Test system: CD2F1 mice, L1210 leukemia ip, survival T/C
Experiment: NCI In Vivo Anticancer Drug Screen. Data for tumor model L1210 Leukemia (intraperitoneal) in CD2F1 (CDF1) mice
Details: endpoint: mean survival time, higher = longer survival
How it was run: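 In this screen, transplantable tumors were grown in mice given either the compound or its vehicle. Results were expressed as the treated measurement relative to the control measurement.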

[1] = dose: 50.0 mg/kg/injection, schedule: Q04DX003 (ip), vehicle: Klucel (hydroxypropylcellulose) (HPC)
[2] = dose: 100.0 mg/kg/injection, schedule: Q01DX001 (ip), vehicle: saline with Tween-80
[3] = dose: 100.0 mg/kg/injection, schedule: Q01DX009 (ip), vehicle: saline with Tween-80
[4] = dose: 200.0 mg/kg/injection, schedule: Q01DX001 (ip), vehicle: saline with Tween-80
[5] = dose: 200.0 mg/kg/injection, schedule: Q01DX009 (ip), vehicle: saline with Tween-80
[6] = dose: 400.0 mg/kg/injection, schedule: Q01DX001 (ip), vehicle: saline with Tween-80
[7] = dose: 400.0 mg/kg/injection, schedule: Q01DX009 (ip), vehicle: saline with Tween-80
[8] = dose: 100.0 mg/kg/injection, schedule: Q04DX003 (ip), vehicle: saline with Tween-80
[9] = dose: 200.0 mg/kg/injection, schedule: Q04DX003 (ip), vehicle: saline with Tween-80
[10] = dose: 400.0 mg/kg/injection, schedule: Q04DX003 (ip), vehicle: saline with Tween-80
[11] = dose: 12.5 mg/kg/injection, schedule: Q01DX009 (ip), vehicle: saline with Tween-80
[12] = dose: 25.0 mg/kg/injection, schedule: Q01DX009 (ip), vehicle: saline with Tween-80
[13] = dose: 50.0 mg/kg/injection, schedule: Q01DX009 (ip), vehicle: saline with Tween-80
[14] = dose: 50.0 mg/kg/injection, schedule: Q04DX003 (ip), vehicle: saline with Tween-80
[15] = dose: 75.0 mg/kg/injection, schedule: Q01DX001 (ip), vehicle: other
[16] = dose: 150.0 mg/kg/injection, schedule: Q01DX001 (ip), vehicle: other
[17] = dose: 100.0 mg/kg/injection, schedule: Q01DX001 (ip), vehicle: saline
[18] = dose: 200.0 mg/kg/injection, schedule: Q01DX001 (ip), vehicle: saline
[19] = dose: 400.0 mg/kg/injection, schedule: Q01DX001 (ip), vehicle: saline
[20] = dose: 12.5 mg/kg/injection, schedule: Q04DX003 (ip), vehicle: saline

Measured: T/C

Nc1nc2c(ncn2C2CC3[O][Sn]([c]4ccccc4)([c]4ccccc4)[O]CC3O2)c(=O)[nH]1 (stereo not drawn)
inactive: dose: 6.25 mg/kg/injection, schedule: Q01DX005 (ip), vehicle: distilled water + Tween-80 104 % of control | dose: 12.5 mg/kg/injection, schedule: Q01DX005 (ip), vehicle: distilled water + Tween-80 93 % of control | dose: 25.0 mg/kg/injection, schedule: Q01DX005 (ip), vehicle: distilled water + Tween-80 93 % of control | dose: 50.0 mg/kg/injection, schedule: Q01DX005 (ip), vehicle: distilled water + Tween-80 90 % of control | dose: 100.0 mg/kg/injection, schedule: Q01DX005 (ip), vehicle: distilled water + Tween-80 106 % of control

CC12CCC(=O)C=C1CCC1C2C(=O)CC2(C)C1CCC2(O)C(=O)Cn1c(=O)cc[nH]c1=O (stereo not drawn)
inactive: dose: 12.5 mg/kg/injection, schedule: Q04DX003 (ip), vehicle: Klucel (hydroxypropylcellulose) (HPC) 96 % of control | dose: 25.0 mg/kg/injection, schedule: Q04DX003 (ip), vehicle: Klucel (hydroxypropylcellulose) (HPC) 96 % of control | [1] 103 % of control | dose: 100.0 mg/kg/injection, schedule: Q04DX003 (ip), vehicle: Klucel (hydroxypropylcellulose) (HPC) 97 % of control | dose: 200.0 mg/kg/injection, schedule: Q04DX003 (ip), vehicle: Klucel (hydroxypropylcellulose) (HPC) 97 % of control

COc1ccc(C(O)C(C)c2ccc([N+](=O)[O-])cc2)cc1 (stereo not drawn)
inactive: [2] 106 % of control | [3] 105 % of control | [4] 93 % of control | [5] 103 % of control | [6] 98 % of control | [7] 94 % of control

CCCCOC(=O)C(C)OC(=O)Nc1cccc(Cl)c1 (stereo not drawn)
inactive: [8] 100 % of control | [9] 101 % of control | [10] 97 % of control

C[n+]1c(/C=C/c2ccccc2Cl)ccc2ccccc21
inactive: [11] 94 % of control | [12] 100 % of control | [13] 96 % of control | [14] 95 % of control

Nc1nc(=S)c2[nH]c(N=Nc3ccc(S(N)(=O)=O)cc3)nc2[nH]1
inactive: [1] 123 % of control

Cc1ccc(C2=C(Cl)C(=O)C(c3ccc(C)cc3)=C(Cl)C2=O)cc1
inactive: [15] 92 % of control | [16] 92 % of control | dose: 300.0 mg/kg/injection, schedule: Q01DX001 (ip), vehicle: other 94 % of control

COc1ccc(-c2sc(/N=C/c3ccc(-c4ccccc4)cc3)c(C#N)c2C)cc1OC
inactive: [3] 97 % of control | [5] 100 % of control | [7] 91 % of control

CC1=CCCN(CCc2c[nH]c3ccccc23)C1
inactive: [14] 97 % of control | [2] 90 % of control | [8] 101 % of control | [4] 90 % of control

O=P(OCCCCCl)(OCCCCCl)C(Cl)Cl
inactive: [17] 100 % of control | [18] 100 % of control | [19] 108 % of control

C1CC1C(=NN=C(C1CC1)C1CC1)C1CC1
inactive: [12] 97 % of control | [13] 101 % of control | [8] 86 % of control

O=C1c2ccccc2C(=O)N1CC(O)CN1C(=O)c2ccccc2C1=O
inactive: dose: 50.0 mg/kg/injection, schedule: Q01DX001 (ip), vehicle: other 98 % of control | dose: 100.0 mg/kg/injection, schedule: Q01DX001 (ip), vehicle: other 100 % of control | dose: 200.0 mg/kg/injection, schedule: Q01DX001 (ip), vehicle: other 93 % of control | dose: 400.0 mg/kg/injection, schedule: Q01DX001 (ip), vehicle: other 94 % of control

O=S1(=O)Cc2c(Br)c(Br)c(Br)c(Br)c2C1
inactive: [11] 90 % of control | [12] 88 % of control | [13] 86 % of control | [8] 101 % of control | [9] 110 % of control | [10] 96 % of control

CN1CN(C)C(=O)S(=O)(=O)C1
inactive: [3] 105 % of control | [8] 92 % of control | [5] 103 % of control | [9] 93 % of control | [7] 107 % of control | [10] 98 % of control

CCC[CH2][Sn]([CH2]CCC)([n]1cncn1)[n]1cncn1
inactive: dose: 12.5 mg/kg/injection, schedule: Q04DX003 (ip), vehicle: saline with Tween-80 105 % of control

O=C1C2=Cc3ccccc3CN2Cc2ccccc21
inactive: [15] 98 % of control | [16] 101 % of control

[Cl][Pt+2][Cl].[NH-]CC([NH-])CN
inactive: dose: 0.39 mg/kg/injection, schedule: Q04DX003 (ip), vehicle: saline 89 % of control | dose: 0.78 mg/kg/injection, schedule: Q04DX003 (ip), vehicle: saline 97 % of control | dose: 1.56 mg/kg/injection, schedule: Q04DX003 (ip), vehicle: saline 103 % of control | dose: 3.12 mg/kg/injection, schedule: Q04DX003 (ip), vehicle: saline 103 % of control | dose: 6.25 mg/kg/injection, schedule: Q04DX003 (ip), vehicle: saline 111 % of control | [20] 109 % of control

CC(C)CC(NC(=O)C(C)NC(=O)OCc1ccccc1)C(N)=O (stereo not drawn) (Cbz-Ala-Leu-NH2; configuration not given here)
inactive: [3] 89 % of control

COc1ccccc1OCC1CO1 (stereo not drawn)
inactive: [17] 101 % of control | [18] 102 % of control | [19] 102 % of control

Cc1ccc(S(=O)(=O)OCCc2ccccc2)cc1
inactive: [2] 97 % of control | [4] 97 % of control | [6] 94 % of control

Cc1nc(N=C(N)N)nc2ccc(Cl)cc12
inactive: dose: 18.8 mg/kg/injection, schedule: Q01DX009 (ip), vehicle: saline 97 % of control

CC(C)(C)COC(=S)Oc1ccc(C(C)(C)C)cc1
inactive: dose: 100.0 mg/kg/injection, schedule: Q04DX002 (ip), vehicle: saline with Tween-80 89 % of control | dose: 200.0 mg/kg/injection, schedule: Q04DX002 (ip), vehicle: saline with Tween-80 104 % of control | dose: 400.0 mg/kg/injection, schedule: Q04DX002 (ip), vehicle: saline with Tween-80 100 % of control

CC/C=C(/CC)C1CCCCC1C (stereo not drawn)
inactive: [13] 87 % of control | [3] 96 % of control | [5] 96 % of control

c1ccc(CSC(SCc2ccccc2)c2ccccc2)cc1
inactive: dose: 100.0 mg/kg/injection, schedule: Q01DX009 (ip), vehicle: Klucel (hydroxypropylcellulose) (HPC) 86 % of control | [8] 96 % of control | dose: 200.0 mg/kg/injection, schedule: Q01DX009 (ip), vehicle: Klucel (hydroxypropylcellulose) (HPC) 92 % of control | [9] 100 % of control | dose: 400.0 mg/kg/injection, schedule: Q01DX009 (ip), vehicle: Klucel (hydroxypropylcellulose) (HPC) 92 % of control | [10] 97 % of control

CC12OC3(C)C4CC1C1(C)OC4(C)C3C(O)C21 (stereo not drawn)
inactive: [17] 97 % of control | dose: 100.0 mg/kg/injection, schedule: Q04DX003 (ip), vehicle: saline 105 % of control | [18] 97 % of control | dose: 200.0 mg/kg/injection, schedule: Q04DX003 (ip), vehicle: saline 102 % of control | [19] 100 % of control | dose: 400.0 mg/kg/injection, schedule: Q04DX003 (ip), vehicle: saline 96 % of control

CC1=NCCc2ccccc21
inactive: [20] 102 % of control | dose: 25.0 mg/kg/injection, schedule: Q04DX003 (ip), vehicle: saline 93 % of control
